What was measured:
Experiment in all cases: relative viability (nuclei count vs DMSO), 5 days (fraction); higher = more cells survive
NCI-H596 = system: NCI-H596
Summary of the method: (§1)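 Values are medians from duplicate plates. Each reflects relative viability, defined as the nuclei count of treated wells over that of vehicle wells. Lung cancer cell lines in 1536-well plates were pin-tool dosed one day after seeding with one drug alone or with a fixed anchor-drug dose plus five library-drug doses (not always all listed) in √10 steps, then fixed, stained and imaged at 4× after 5 days.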

NCI-H1993 = system: NCI-H1993
Summary of the method: as §1

LCLC-103H = system: LCLC-103H
Summary of the method: as §1

NCI-H2347 = system: NCI-H2347
Summary of the method: as §1

NCI-H2023 = system: NCI-H2023
Summary of the method: as §1

201T = system: 201T
Summary of the method: as §1

NCI-H2087 = system: NCI-H2087
Summary of the method: as §1

HARA = system: HARA
Summary of the method: as §1

NCI-H23 = system: NCI-H23
Summary of the method: as §1

EMC-BAC-2 = system: EMC-BAC-2
Summary of the method: as §1

Work on `CC(=O)O[C@@]12CO[C@@H]1C[C@H](O)[C@@]1(C)C(=O)[C@H](O)C3=C(C)[C@@H](OC(=O)[C@H](O)[C@@H](NC(=O)OC(C)(C)C)c4ccccc4)C[C@@](O)([C@@H](OC(=O)c4ccccc4)[C@H]21)C3(C)C` [Docetaxel] + CC(C)C[C@H](NC(=O)[C@H](Cc1ccccc1)NC(=O)c1cnccn1)B(O)O [Bortezomib] (partner 0.002 µM) yielded a relative viability (NCI-H596; first compound 0.0002 µM) of 0.81, a relative viability (NCI-H596; first compound 0.000632 µM) of 1.15 and a relative viability (NCI-H596; first compound 0.002 µM) of 0.812. For the same compound, the relative viability (NCI-H596; first compound 0.006325 µM) was 0.723, the relative viability (NCI-H596; first compound 0.02 µM) was 0.423 and the relative viability (NCI-H1993; first compound 0.0002 µM) was 0.961. For the same compound, the relative viability (NCI-H1993; first compound 0.000632 µM) was 1.06, the relative viability (NCI-H1993; first compound 0.002 µM) was 0.798 and the relative viability (NCI-H1993; first compound 0.006325 µM) was 0.608. For the same compound, the relative viability (NCI-H1993; first compound 0.02 µM) was 0.399, the relative viability (LCLC-103H; first compound 0.0002 µM) was 1.15 and the relative viability (LCLC-103H; first compound 0.000632 µM) was 1.12. It also gave a relative viability (LCLC-103H; first compound 0.002 µM) of 0.714, a relative viability (LCLC-103H; first compound 0.006325 µM) of 0.589 and a relative viability (LCLC-103H; first compound 0.02 µM) of 0.402. The relative viability (NCI-H2347; first compound 0.0002 µM) was 0.805, the relative viability (NCI-H2347; first compound 0.000632 µM) was 0.832 and the relative viability (NCI-H2347; first compound 0.002 µM) was 0.326. The relative viability (NCI-H2347; first compound 0.006325 µM) was 0.497, the relative viability (NCI-H2347; first compound 0.02 µM) was 0.575 and the relative viability (NCI-H2023; first compound 0.0002 µM) was 0.89. It also gave a relative viability (NCI-H2023; first compound 0.000632 µM) of 0.456, a relative viability (NCI-H2023; first compound 0.002 µM) of 0.134 and a relative viability (NCI-H2023; first compound 0.006325 µM) of 0.101. It also gave a relative viability (NCI-H2023; first compound 0.02 µM) of 0.0677, a relative viability (201T; first compound 0.0002 µM) of 1.07 and a relative viability (201T; first compound 0.000632 µM) of 1.1. The relative viability (201T; first compound 0.002 µM) was 1.03, the relative viability (201T; first compound 0.006325 µM) was 0.624 and the relative viability (201T; first compound 0.02 µM) was 0.425. For the same compound, the relative viability (NCI-H2087; first compound 0.0002 µM) was 0.701, the relative viability (NCI-H2087; first compound 0.000632 µM) was 0.665 and the relative viability (NCI-H2087; first compound 0.002 µM) was 0.28. The relative viability (NCI-H2087; first compound 0.006325 µM) was 0.224, the relative viability (NCI-H2087; first compound 0.02 µM) was 0.142 and the relative viability (HARA; first compound 0.0002 µM) was 1.04. It also gave a relative viability (HARA; first compound 0.000632 µM) of 0.372, a relative viability (HARA; first compound 0.002 µM) of 0.376 and a relative viability (HARA; first compound 0.006325 µM) of 0.118. It also gave a relative viability (HARA; first compound 0.02 µM) of 0.0895, a relative viability (NCI-H23; first compound 0.0002 µM) of 1.08 and a relative viability (NCI-H23; first compound 0.000632 µM) of 0.574. For the same compound, the relative viability (NCI-H23; first compound 0.002 µM) was 0.399, the relative viability (NCI-H23; first compound 0.006325 µM) was 0.169 and the relative viability (NCI-H23; first compound 0.02 µM) was 0.104. The relative viability (EMC-BAC-2; first compound 0.0002 µM) was 0.963, the relative viability (EMC-BAC-2; first compound 0.000632 µM) was 0.875 and the relative viability (EMC-BAC-2; first compound 0.002 µM) was 0.573. The relative viability (EMC-BAC-2; first compound 0.006325 µM) was 0.306 and the relative viability (EMC-BAC-2; first compound 0.02 µM) was 0.206.

From the supplement of paper PMC10307832
